How the values were obtained:
house dust mites = conditions: Chang et al. 2001; cited from earlier work
[1] = Thermal rearrangement, pentane extracts from purified protein injected at different port temperatures; assay type: physicochemical
Experimental: Dynamic headspace methods were also used to collect the headspace volatiles from the purified extracts on to 100 mg Chromosorb 105 adsorbent traps. The protein was placed into 50 mL Quickfit® test tubes, which were fitted with a headspace adaptor with an air inlet and outlet. Volatiles were collected onto the Chromosorb 105 adsorbent traps, which were fitted to the air outlet port of each adaptor. The volatiles were purged from the vessel onto the traps with clean air at 50 mL min^−1 for 18 hours. The traps were stored at −15° C. for up to one week, and then subjected to GC-FIDIMS analysis. Finally, pentane extracts were taken from the purified extracts. An aliquot (2.5 ml) of pentane was added to the purified extracts and was left to extract for 18 hours. The pentane was removed and then concentrated with a stream of N2 gas. This was then injected onto the GC-MS at 150° C.
More light can be shed on the possibility of rearrangement of the products using pentane extraction.
In an experiment to test for thermal rearrangement, injections of pentane extract from purified protein were made at temperatures of 125, 150 and 210° C.; or pentane extract from Actinidia flowers were made at temperatures of 100, 125, 150 and 210° C. […] Germacrene B modulated slightly in response to temperature shifts although no gamma-elemene was found as might be predicted. In addition the predicted precursor for delta elemene—germacrene C (Feger et al., Flavour and Fragrance Journal 15: 170-173 (2000)) was not detected at any time. Germacrene A was also not detected at any time. […] Elemol may arise from further rearrangements of delta-elemene or from other elemene sources or from hedycaryol (Chamblee et al., J. Essent. Oil Res. 9: 127-132 (1997)). No GC-MS traces in any experiments indicated evidence for germacrene-C or for hedycaryol.

[2] = Thermal rearrangement, pentane extracts from Actinidia flowers injected at different port temperatures; assay type: physicochemical
Experimental: Whole flowers of the same plants were also harvested at anthesis in 2000. 18.6 g and 21 g of flowers from a mixture of developmental stages were placed in 2× Quickfit® Erlenmeyer flasks as above. Volatiles were collected onto a Chromosorb adsorbent trap in duplicate, after the system had been equilibrated for 30 min at room temperature (ca. 23° C.), by purging onto the trap with clean air at 25 mL min^−1 for 60 minutes. The trap was stored at −15° C. for one week and then analysed by GC-FD/MS. The same petals (1.99 g) were then extracted with pentane-ether (2 ml) and stored at −20° C. until analysed. The pentane (GPR, BDH) had been purified by distillation and by passing through a column of activated alumina. Pentane extracts were reduced by rotary evaporation and were dried by passing through a small column of anhydrous MgSO4 before the volume was reduced to ca. 50 μL under a gentle stream of nitrogen. The extract was analysed by GC-FID/MS.
GC-MS Analysis of dynamic headspace samples and pentane extracts: Volatile compounds were thermally desorbed from the headspace traps at 150° C. and were cryo-focussed at the beginning of the GC column (Young, 1981). The column outlet was split between the GC (Hewlett Packard 5890) FID detector (for quantitation) and VG-70SE (VG-Micromass, Manchester, U.K.) mass spectrometer (for component identification) with an electron impact ionisation of 70 eV. Separations were carried out in a 30 m×0.32 mm i.d., 0.5 μn DBWax capillary column (J & W Scientific, Folsom, USA), starting at 30° C. for 6 min, increasing by 3° C. min^−1 to 102° C., 5° C. min^−1 to 210° C. and held for 5 min. Injector temperature was 210° C. The carrier gas was He at a flow rate of ˜30 cm s^−1, and the FID and mass spectrometer transfer line were at 210° C. Quantification of compounds was carried out using an average detector response based on methyl butanoate, ethyl butanoate, hexanol and methyl benzoate. Components were identified by comparison with spectra in the mass spectral database (NIST 1998, Wiley 7 and an in-house database), retention indices (in-house database) and in some cases direct GC-MS comparison with authentic standards. Separations for the earlier 2000 samples were carried out in the same manner as above except the programme started at 30° C. for 6 min, increasing by 3° C. min^−1 to 102° C., 5° C. min^−1 to 190° C. and held for 5 min. Analysis of the pentane extract used a programme of 2 min at 40° C., 5° C. min^−1 to 200° C., 15° C. m^−1 to 240° C. and held for 20 min. For genotype 32-10-07a: the GC-MS was programmed to start at 30° C. for 2 min, increasing by 3° C. min^−1 to 50° C., 5° C. min^−1 to 130° C., 10° C. min^−1 to 240° C. and held for 2 min. Injector temperature was 240° C.
In an experiment to test for thermal rearrangement, injections of pentane extract from purified protein were made at temperatures of 125, 150 and 210° C.; or pentane extract from Actinidia flowers were made at temperatures of 100, 125, 150 and 210° C.

Germacrene D synthase = Germacrene D synthase (Actinidia deliciosa, UniProt Q32W37); assay: Kinetic studies with 3H-FDP, pentane overlay scintillation assay; assay type: biochemical; conditions: for inhibition at high concentrations of the chloride salts: >5 mM and 10 mM of the respective Mg2+ and Mn2+ chloride salts
Experimental: Optimisation of large-scale production of protein and protein kinetics: E. coli BL21-PlusTM-RIL cells harbouring pET-30a75565 were grown overnight at 37° C. in Lauria-Bertani media supplemented with 30 μg ml^-1 kanamycin and 34 μg ml chloramphenicol^-1. 5 mL aliquots of overnight culture were used to inoculate 4×300 mL of fresh 2× YT medium supplemented with 30 μg ml^-1 […] 34 μg ml^-1 chloramphenicol in 1 L baffled flasks. Cultures were grown at 37° C. with vigorous agitation to A600=0.8, then removed to 4° C. to equilibrate to 16° C. before induction with 0.3 mM IPTG. Induced cultures were then incubated at 16° C. and 220 rpm for a further 72 hours. Cells were pelleted by centrifugation (2500×g; 10 min) and stored overnight at -20° C. The following day cell pellets were resuspended in 20 mL His6 binding buffer and cells were disrupted by 2 passes through an EmulsiFlex®-C15 high-pressure homogeniser (Avestin) with a pressure setting between 15000-20000 psi. Cell debris was pelleted by centrifugation 2× at 10000×g for 15 min; 4° C. (Sorval SS34 rotor). […] Filtered extract was desalted and passed over a Nickel affinity column. Concentration of the recombinant synthase in the purified protein extracts was estimated from SDS-PAGE gels by comparing against a BenchMarkTM Protein Ladder (Invitrogen). Purified extracts were adjusted to a workable concentration with His6 elution buffer (without Imidazole) containing 10% glycerol and 1 mM DTT. The extract was then separated into 100 μl aliquots and stored at -80° C. until required. […] Kinetic Studies: […] Tritiated FDP was added variously depending on the experiment. One mL assays containing 100-150 ng of the recombinant synthase were overlaid with 0.6 mL pentane and incubated in 1.5 mL microfuge tubes for 2 hours at 30° C. and 150 rpm. All assays were performed in triplicate. Following incubation assays were immediately placed on ice and a 200 μL aliquot of the pentane layer removed for analysis. The aliquots were added to 1.5 mL microfuge tubes containing 0.7 mL Organic Counting Scintillant (OCS) (Amersham) and vortexed briefly. Scintillation analysis was performed using a Wallac 1409 Liquid Scintillation Counter (^3H efficiency≈70%). […] The effect on enzyme activity of metal co-factors with and without salts was also tested. Mg^2+ and Mn^2+ were added in the presence and absence of 50 mM KCL and 50 mM NaCl in all possible combinations. Controls included incubation without enzyme, with enzyme but without metal ion cofactors and with enzyme and cofactors in the presence of 10 mM EDTA. A further control comprising His6 purified pET-30a extract was also assayed to determine potential utilisation of FDP by co-purifying bacterial proteins. […] Kinetic constants were determined from the DPM data by nonlinear regression using the Origin50 graphics package.

[3] = test system: other sesquiterpene synthases; conditions: read-out: Km in the literature; cited from earlier work
[4] = test system: multifunctional germacrene D synthase (EST75565); assay: Sesquiterpene products of purified recombinant protein + FDP, headspace trapping GC-MS; assay type: biochemical, Actinidia deliciosa
Experimental: Characterization of multifunctional germacrene D synthase from bacterial extracts and purified recombinant protein: E. coli BL21-Plus™-RIL cells harbouring pET-30a75565 were grown overnight at 37° C. in Lauria-Bertani media supplemented with 30 μg ml^−1 kanamycin and 34 μg ml chloramphenicol^−1. 5 mL aliquots of overnight culture were used to inoculate 4×300 mL of fresh 2× YT medium supplemented with 30 μg ml^−1 kanamycin and 34 μg ml^−1 chloramphenicol in 1 L baffled flasks. Cultures were grown at 37° C. with vigorous agitation to A600=0.8, then removed to 4° C. to equilibrate to 16° C. before induction with 0.3 mM IPTG. Following induction, cultures were immediately transferred to a 16° C. incubator and allowed to grow for a further 24 hours with continuous agitation and then harvested by centrifugation (2000×g for 10 min). […]
The headspace in the testubes was collected immediately after the addition of FDP (or GDP) and hexadecane (internal standard) using solid phase micro extraction (SPME). […] The background was analysed for contamination using GC-FID (HP5890) prior to use. […]
The volatiles were desorbed from the fibres in the GC injection port for 10 minutes at 220° C. for the Carbowax/DVB fibres. […] Semi-quantitative data was obtained by measuring sample peak area relative to hexadecane internal standard. […]

[5] = test system: multifunctional germacrene D synthase; assay: Headspace volatiles above E. coli BL21 cultures harbouring pET30a75565, PDMS/DVB SPME; assay type: cell-based, Actinidia deliciosa; conditions: bacterial cultures
Experimental: Expression and characterization of multifunctional germacrene D synthase from bacterial cultures: E. coli BL21-Plus™-RIL cells harbouring pET30a75565, or empty pET30a vector as a control, were grown overnight at 37° C. in Luria-Bertani media supplemented with 30 μg/mL kanamycin and 50 μg/mL chloramphenicol. […] of overnight culture was used to inoculate 50 mL of fresh 2× YT medium supplemented with 30 μg/mL kanamycin and 50 μg/mL chloramphenicol. […] The culture was immediately transferred to an incubator set at 16° C., 30° C. or 37° C. depending on the experiment The headspace in the vessels above the bacterial cultures was collected immediately after the addition of FDP (or GDP) and hexadecane (the internal standard) using solid phase micro extraction (SPME). […] The background was analysed for contamination using GC-FID (HP5890) prior to use. The headspace volatiles were collected for ˜20 hours at 30° C. with continuous agitation (110 rpm). Prior to analysis using a GC-FID/MS, the fibres were stored at ambient temperature in septum sealed glass vials. The PDMS/DVB fibres were desorbed in the injector at 260° C.

[6] = Bülow and König 2000; cited from earlier work
Heliothis virescens = conditions: Mozuraitis et al. 2002; cited from earlier work
Periplanata americana L. = conditions: Nishino et al. 1977; cited from earlier work
[7] = injection port temperature 125 °C
[8] = injection port temperature 150 °C
[9] = injection port temperature 210 °C
[10] = injection port temperature 100 °C

Chain of Germacrene D synthase (Q32W37 entry or part of it): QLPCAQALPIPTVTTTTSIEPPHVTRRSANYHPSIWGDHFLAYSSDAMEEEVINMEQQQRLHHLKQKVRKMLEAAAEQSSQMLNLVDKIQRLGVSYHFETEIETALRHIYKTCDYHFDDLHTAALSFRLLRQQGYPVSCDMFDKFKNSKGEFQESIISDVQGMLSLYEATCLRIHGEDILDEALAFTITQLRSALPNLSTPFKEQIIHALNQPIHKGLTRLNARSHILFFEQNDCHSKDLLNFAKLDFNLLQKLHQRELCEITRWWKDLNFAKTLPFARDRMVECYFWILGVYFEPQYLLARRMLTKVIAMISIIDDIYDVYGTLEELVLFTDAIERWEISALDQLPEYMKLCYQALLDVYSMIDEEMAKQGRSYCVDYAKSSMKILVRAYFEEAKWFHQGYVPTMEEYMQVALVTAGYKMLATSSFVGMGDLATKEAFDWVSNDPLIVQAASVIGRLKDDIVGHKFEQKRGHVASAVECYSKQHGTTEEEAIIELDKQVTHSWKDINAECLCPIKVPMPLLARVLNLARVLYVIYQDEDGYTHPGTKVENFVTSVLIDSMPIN

| SMILES | Peak Area [1, 7] | Peak Area [1, 8] | Peak Area [1, 9] | Peak Area [2, 8] | Peak Area [2, 9] | Km [3] [µM] | also measured |
| --- | --- | --- | --- | --- | --- | --- | --- |
| CC1=C[C@@H]2[C@@H](CC1)[C@](C)(O)CC[C@H]2C(C)C [Alpha-cadinol] | – | – | – | – | – | – | miticidal activity (house dust mites): potent miticide |
| C=C[C@]1(C)CC[C@@H](C(C)(C)O)C[C@H]1C(=C)C [Elemol] | ca. 9 × 10^4^ | ca. 1.4 × 10^5^ | 5.75 × 10^6 | ca. 8.4 × 10^6 | 3.78 × 10^7 | – | – |
| CC(C)=CCC/C(C)=C/CC/C(C)=C/COP(=O)(O)OP(=O)(O)O [FDP, farnesyl diphosphate] | – | – | – | – | – | 0.4 to 4.5 | saturating concentration of FDP (Germacrene D synthase): ~7.5 µM; inhibition by substrate (Germacrene D synthase; 1 mM substrate concentration): ~50% |
| CC(C)=CCC/C(C)=C/COP(=O)(O)OP(=O)(O)O [GDP, geranyl diphosphate] | – | – | – | – | – | – | products on addition of GDP instead of FDP [4]: did not produce any germacrene D; products on addition of GDP instead of FDP [5]: did not result in the production of any monoterpenes |
| CC(C)=C1C/C=C(\C)CC/C=C(\C)CC1 [Germacrene B] | 7.57 × 10^5 | 8.58 × 10^5 | 5.87 × 10^5 | 1.0 × 10^7 | 3.92 × 10^6 | – | Peak Area [2, 10]: 5.0 × 10^6; Peak Area [2, 7]: 7.40 × 10^6 |
| C=C1C=CC(C(C)C)CCC(C)=CCC1 (stereo not shown) [Germacrene D, 7-iso-propyl-10-methyl-4-methylene-cyclodeca-5,10-diene] | 4.22 × 10^6 | 4.90 × 10^6 | 3.91 × 10^6 | 3.87 × 10^7 | 2.42 × 10^7 | – | Peak Area [2, 10]: 2.85 × 10^7 ^; Peak Area [2, 7]: 3.78 × 10^7; temperature up to which stable [6]: up to 180 °C; effect on moth behaviour (Heliothis virescens): increase attraction of and oviposition; effect on male cockroach (Periplanata americana L.): sex stimulant |
| [Mg+2] [Mg^2+] | – | – | – | – | – | 70 to 150 | inhibition at high concentrations of the chloride salts (Germacrene D synthase): No significant inhibition |
| [Mn+2] [Mn^2+] | – | – | – | – | – | 7 to 30 | Vrel with Mn2+ as cofactor relative to Mg2+ (Germacrene D synthase): ~27%; effect of Mn in the buffer when Mg2+ present (Germacrene D synthase): inhibition of activity; inhibition at high concentrations of the chloride salts (Germacrene D synthase): No significant inhibition |
| C=C[C@@]1(C)CCC(C(C)C)=C[C@@H]1C(=C)C [δ-Elemene] | – | – | 9.05 × 10^5 | ca. 5.7 × 10^5 | 4.14 × 10^6 | – | – |

From patent US7312323B2, “Enzymes and polynucleotides encoding the same” (The Horticulture and Food Research Institute of New Zealand …, priority 2002, dated 2007)
